These results are taken from patent US20260167623A1 (NIKANG THERAPEUTICS, INC., priority 2022, published 2026).

Assay [1] concerns the target T1, CDK2 (Homo sapiens, UniProt P24941).
T1 construct: High-Throughput Measurement of Cellular Endogenous CDK2; endogenous in cells; host or cells: OVCAR3
In words: High-throughput HTRF measurement of cellular endogenous CDK2 level (degradation, DC50/Dmax) in OVCAR3 cells, 6 h. It is filed as cell-based. The note with it: 6 h compound treatment, HTRF total CDK2, read-out: DC50_OVCAR3_6h. The gist of the method:
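DC50 and Dmax were derived by four-parameter logistic fit of the […] TR-FRET ratio, scaled between DMSO (0% degradation) and lysis buffer (100%) controls. The ratio came from an HTRF total-CDK2 sandwich immunoassay on lysates of OVCAR3 cells given 0.03–1,000 nM compound for 6 hours.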

Assay [2] addresses T1, CDK2. In words: Inhibition of CDK2: phospho-Rb (S807/811) HTRF measurement in OVCAR3 cells, 24 h. It is filed as cell-based. Conditions: 24 h compound treatment, read-out: pRB_OVCAR3_24h. The procedure, abridged: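 IC50 came from a four-parameter fit of DMSO-normalized TR-FRET ratios (665/620 nm) reporting phospho-Rb S807/811. Lysates were taken from OVCAR3 cultures treated 24 h with compound (0.3 to 10,000 nM) and incubated 4 h at room temperature with the antibody pair.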

Consider `Cn1c(=O)n(C2CCC(=O)NC2=O)c2cccc(C3CCN(Cc4cccc(S(=O)(=O)N5CCC(Nc6ncc(C(F)(F)F)cn6)CC5)c4)CC3)c21` (stereo not drawn) [Example 83, 3-(3-methyl-2-oxo-4-(1-(3-((4-((5-(trifluoromethyl)pyrimidin-2-yl)amino)piperidin-1-yl)sulfonyl)benzyl)-piperidin-4-yl)-2,3-dihydro-1H-benzo[d]imidazol-1-yl)piperidine-2,6-dione], for which, on CDK2 [1], the DC50 lay within 1 to 10 nM. At CDK2 [2], the IC50 lay in the range of 1 to 100 nM.

Consider `Cn1nc(N2CCC(=O)NC2=O)c2ccc(C3CCN(CC4CCN(c5cccc(S(=O)(=O)N6CCC(Nc7ncc(C(F)(F)F)cn7)CC6)c5)CC4)CC3)c(F)c21` [Example 94, 1-(7-fluoro-1-methyl-6-(1-((1-(3-((4-((5-(trifluoromethyl)pyrimidin-2-yl)amino)-piperidin-1-yl)sulfonyl)phenyl)piperidin-4-yl)methyl)piperidin-4-yl)-1H-indazol-3-yl)dihydropyrimidine-2,4(1H,3H)-dione], for which the DC50 on CDK2 [1] was 10 to 100 nM. Also, the IC50 on CDK2 [2] was in the range of 1 to 100 nM.

Take `Cn1c(=O)n(C2CCC(=O)NC2=O)c2ccc(C3CCN(CC4CCN(c5cc(S(=O)(=O)N6CCC(Nc7ncc(Cl)cn7)CC6)ccc5C#N)CC4)CC3)cc21` (stereo not drawn) [Example 204, 4-((4-((5-chloropyrimidin-2-yl)amino)piperidin-1-yl)sulfonyl)-2-(4-((4-(1-(2,6-dioxopiperidin-3-yl)-3-methyl-2-oxo-2,3-dihydro-1H-benzo[d]imidazol-5-yl)piperidin-1-yl)methyl)piperidin-1-yl)benzonitrile]: the DC50 at CDK2 [1] is 1 to 10 nM. Also, the IC50 at CDK2 [2] is 1 to 100 nM.

On to `O=C1CCC(N2Cc3cc(N4CCC(CN5CCN(c6cccc(S(=O)(=O)N7CCC(Nc8ncc(Cl)cn8)CC7)c6)CC5)CC4)ccc3C2=O)C(=O)N1` (stereo not drawn) [Example 247, 3-(5-(4-((4-(3-((4-((5-chloropyrimidin-2-yl)amino)piperidin-1-yl)sulfonyl)phenyl)piperazin-1-yl)methyl)piperidin-1-yl)-1-oxoisoindolin-2-yl)piperidine-2,6-dione], for which the DC50 at CDK2 [1] was 10 to 100 nM. Also, on CDK2 [2], the IC50 was in the range of 1 to 100 nM.

With `Cn1nc(N2CCC(=O)NC2=O)c2ccc(C3CCN(Cc4cccc(S(=O)(=O)N5CCC(Nc6ncc(C(F)(F)F)cn6)CC5)c4)CC3)c(F)c21` [Example 2, 1-(7-fluoro-1-methyl-6-(1-(3-((4-((5-(trifluoromethyl)pyrimidin-2-yl)amino)piperidin-1-yl)sulfonyl)benzyl)-piperidin-4-yl)-1H-indazol-3-yl)dihydropyrimidine-2,4(1H,3H)-dione], on CDK2 [1], the DC50 is 10 to 100 nM. Besides, the IC50 at CDK2 [2] fell in the range of 1 to 100 nM.

`O=C1CCC(N2Cc3cc(C4CCN(CC5CCN(c6cccc(S(=O)(=O)N7CCC(Nc8ncc(C(F)(F)F)cn8)CC7)c6)CC5)CC4)c(F)cc3C2=O)C(=O)N1` (stereo not drawn) [Example 119, 3-(6-fluoro-1-oxo-5-(1-((1-(3-((4-((5-(trifluoromethyl)pyrimidin-2-yl)amino)-piperidin-1-yl)sulfonyl)phenyl)piperidin-4-yl)methyl)piperidin-4-yl)isoindolin-2-yl)piperidine-2,6-dione]: the DC50 on CDK2 [1] was in the range of 1 to 10 nM. Moreover, the IC50 at CDK2 [2] fell in the range of 1 to 100 nM.

Consider `Cn1c(S(=O)(=O)N2CCC(Nc3ncc(C(F)(F)F)cn3)CC2)cnc1CN1CCC(c2ccc3c(N4CCC(=O)NC4=O)nn(C)c3c2)CC1` [Example 47, 1-(1-methyl-6-(1-((1-methyl-5-((4-((5-(trifluoromethyl)pyrimidin-2-yl)amino)-piperidin-1-yl)sulfonyl)-1H-imidazol-2-yl)methyl)piperidin-4-yl)-1H-indazol-3-yl)dihydropyrimidine-2,4(1H,3H)-dione], for which the DC50 on CDK2 [1] was 10 to 100 nM. Moreover, the IC50 at CDK2 [2] lay in the range of 1 to 100 nM.

As to `Cn1nc(N2CCC(=O)NC2=O)c2ccc(C3CCN(CC4CCN(c5cc(F)cc(S(=O)(=O)N6CCC(Nc7ncc(OC(F)F)cn7)CC6)c5)CC4)CC3)cc21` [Example 175, 1-(6-(1-((1-(3-((4-((5-(difluoromethoxy)pyrimidin-2-yl)amino)piperidin-1-yl)sulfonyl)-5-fluorophenyl)piperidin-4-yl)methyl)piperidin-4-yl)-1-methyl-1H-indazol-3-yl)dihydropyrimidine-2,4(1H,3H)-dione], the DC50 on CDK2 [1] was 10 to 100 nM. For the same compound, the IC50 on CDK2 [2] is 100 to 500 nM.

For the compound `Cn1nc(N2CCC(=O)NC2=O)c2ccc(C3CCN(Cc4ccc(S(=O)(=O)N5CCC(Nc6ncc(OC(F)F)cn6)CC5)cc4)CC3)cc21` [Example 241, 1-(6-(1-(4-((4-((5-(difluoromethoxy)pyrimidin-2-yl)amino)piperidin-1-yl)sulfonyl)benzyl)piperidin-4-yl)-1-methyl-1H-indazol-3-yl)dihydropyrimidine-2,4(1H,3H)-dione], the DC50 at CDK2 [1] is 1 to 10 nM. Moreover, the IC50 on CDK2 [2] was 1 to 100 nM.

For `Cn1c(=O)n(C2CCC(=O)NC2=O)c2cc(F)cc(C3CCN(CC4CCN(c5cc(S(=O)(=O)N6CCC(Nc7ncc(Cl)cn7)CC6)ccc5C#N)CC4)CC3)c21` (stereo not drawn) [Example 209, 4-((4-((5-chloropyrimidin-2-yl)amino)piperidin-1-yl)sulfonyl)-2-(4-((4-(1-(2,6-dioxopiperidin-3-yl)-6-fluoro-3-methyl-2-oxo-2,3-dihydro-1H-benzo[d]imidazol-4-yl)piperidin-1-yl)methyl)piperidin-1-yl)benzonitrile], the DC50 on CDK2 [1] fell in the range of 10 to 100 nM. Besides, on CDK2 [2], the IC50 lay in the range of 1 to 100 nM.

Turning to `O=C1CCC(N2Cc3cc(N4CCN(Cc5cccc(S(=O)(=O)N6CCC(Nc7ncc(C(F)(F)F)cn7)CC6)c5)CC4)c(F)cc3C2=O)C(=O)N1` (stereo not drawn) [Example 42, 3-(6-fluoro-1-oxo-5-(4-(3-((4-((5-(trifluoro-methyl)pyrimidin-2-yl)amino)piperidin-1-yl)sulfonyl)benzyl)piperazin-1-yl)isoindolin-2-yl)piperidine-2,6-dione], at CDK2 [1], the DC50 lay within 1 to 10 nM. Moreover, the IC50 on CDK2 [2] fell in the range of 1 to 100 nM.

For the compound `Cn1nc(N2CCC(=O)NC2=O)c2ccc(C3CCN(CC4CCN(c5cc(S(=O)(=O)N6CCC(Nc7ncc(C(F)(F)F)cn7)CC6)ccc5C#N)CC4)CC3)c(F)c21` [Example 188, 2-(4-((4-(3-(2,4-dioxotetrahydropyrimidin-1(2H)-yl)-7-fluoro-1-methyl-1H-indazol-6-yl)piperidin-1-yl)methyl)piperidin-1-yl)-4-((4-((5-(trifluoromethyl)pyrimidin-2-yl)amino)piperidin-1-yl)sulfonyl)benzonitrile], the DC50 at CDK2 [1] fell in the range of 10 to 100 nM. The IC50 on CDK2 [2] fell in the range of 1 to 100 nM.

On to `Cn1nc(N2CCC(=O)NC2=O)c2ccc(C3CCN(CC4CCN(c5cc(F)cc(S(=O)(=O)N6CCC(Nc7ncc(C(F)(F)F)cn7)CC6)c5)CC4)CC3)cc21` [Example 149, 1-(6-(1-((1-(3-fluoro-5-((4-((5-(trifluoromethyl)pyrimidin-2-yl)amino)piperidin-1-yl)sulfonyl)phenyl)piperidin-4-yl)methyl)piperidin-4-yl)-1-methyl-1H-indazol-3-yl)dihydropyrimidine-2,4(1H,3H)-dione], for which, at CDK2 [1], the DC50 was 1 to 10 nM. Further, the IC50 on CDK2 [2] was in the range of 1 to 100 nM.

`Cn1nc(N2CCC(=O)NC2=O)c2ccc(C3CCN(CC4CCN(c5cccc(S(=O)(=O)N6CCC(Nc7ncc(Cl)cn7)CC6)c5)C(=O)C4)CC3)cc21` (stereo not drawn) [Example 234, 1-(6-(1-((1-(3-((4-((5-chloropyrimidin-2-yl)amino)piperidin-1-yl)sulfonyl)phenyl)-2-oxopiperidin-4-yl)methyl)piperidin-4-yl)-1-methyl-1H-indazol-3-yl)dihydropyrimidine-2,4(1H,3H)-dione]: on CDK2 [1], the DC50 lay within 1 to 10 nM. Further, the IC50 at CDK2 [2] was 1 to 100 nM.

Regarding `Cn1nc(N2CCC(=O)NC2=O)c2ccc(C3CCN(Cc4cccc(S(=O)(=O)N5CCC(Nc6ncc(Cl)cn6)CC5)c4)CC3(F)F)cc21` (stereo not drawn) [Example 33, 1-(6-(1-(3-((4-((5-chloropyrimidin-2-yl)amino)piperidin-1-yl)sulfonyl)benzyl)-3,3-difluoropiperidin-4-yl)-1-methyl-1H-indazol-3-yl)dihydropyrimidine-2,4(1H,3H)-dione], the DC50 on CDK2 [1] was 10 to 100 nM. Moreover, the IC50 on CDK2 [2] was 100 to 500 nM.

On to `Cn1c(=O)n(C2CCC(=O)NC2=O)c2cccc(N3CCN(CC4CCN(c5cc(S(=O)(=O)N6CCC(Nc7ncc(Cl)cn7)CC6)ccc5C#N)CC4)CC3)c21` (stereo not drawn) [Example 203, 4-((4-((5-chloropyrimidin-2-yl)amino)piperidin-1-yl)sulfonyl)-2-(4-((4-(1-(2,6-dioxopiperidin-3-yl)-3-methyl-2-oxo-2,3-dihydro-1H-benzo[d]imidazol-4-yl)piperazin-1-yl)methyl)piperidin-1-yl)benzonitrile], for which the DC50 on CDK2 [1] was 1 to 10 nM. The IC50 at CDK2 [2] fell in the range of 1 to 100 nM.

In the case of `C=Cc1cnc(NC2CCN(S(=O)(=O)c3cccc(CN4CCC(c5ccc6c(N7CCC(=O)NC7=O)nn(C)c6c5)CC4)c3)CC2)nc1` [Example 58, 1-(1-methyl-6-(1-(3-((4-((5-vinylpyrimidin-2-yl)amino)piperidin-1-yl)sulfonyl)benzyl)-piperidin-4-yl)-1H-indazol-3-yl)dihydropyrimidine-2,4(1H,3H)-dione], the DC50 on CDK2 [1] is 1 to 10 nM. In addition, on CDK2 [2], the IC50 was in the range of 100 to 500 nM.

Regarding `Cn1nc(N2CCC(=O)NC2=O)c2ccc(C3CCN(CC4CN(c5cccc(S(=O)(=O)N6CCC(Nc7ncc(C(F)(F)F)cn7)CC6)c5)C4)CC3)cc21` [Example 108, 1-(1-methyl-6-(1-((1-(3-((4-((5-(trifluoromethyl)pyrimidin-2-yl)amino)-piperidin-1-yl)sulfonyl)phenyl)azetidin-3-yl)methyl)piperidin-4-yl)-1H-indazol-3-yl)dihydropyrimidine-2,4(1H,3H)-dione], on CDK2 [1], the DC50 was 10 to 100 nM. For the same compound, the IC50 on CDK2 [2] was 1 to 100 nM.
